For 26 molecules, IC50 results are on record in US10562909B2, “Fused quadracyclic compounds, compositions and uses thereof” (Tabomedex Biosciences, LLC, priority 2016, dated 2020).

One may read the IC50 as the point on the concentration scale where inhibition reaches its midpoint. A high value points to lower potency.

Sequence of MAPKAPK2 (P49137 whole entry, species assumed): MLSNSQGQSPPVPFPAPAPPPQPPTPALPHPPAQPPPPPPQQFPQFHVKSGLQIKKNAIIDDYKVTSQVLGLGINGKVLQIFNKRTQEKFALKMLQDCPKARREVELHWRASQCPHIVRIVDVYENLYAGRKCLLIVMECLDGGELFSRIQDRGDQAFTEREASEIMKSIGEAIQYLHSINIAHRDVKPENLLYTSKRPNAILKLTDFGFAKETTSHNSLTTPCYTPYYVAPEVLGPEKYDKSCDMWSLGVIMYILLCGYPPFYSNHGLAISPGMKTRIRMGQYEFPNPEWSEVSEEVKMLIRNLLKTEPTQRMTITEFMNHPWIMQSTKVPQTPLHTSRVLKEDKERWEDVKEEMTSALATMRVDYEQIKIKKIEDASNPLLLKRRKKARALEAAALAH

The target in this assay is MAPKAPK2 (Homo sapiens, UniProt P49137). Put plainly: MK2 Enzymatic Assay. Type of assay: biochemical. Particulars: 0.5 nM MAPKAPK2, 3 μM ATP, 2 μM Ser/Thr4 peptide, 23° C., values given as concentration bins. On the procedure:
Briefly, 5 μL of 2× (4 μM) 100% phosphorylation peptide was delivered into the control wells of a 384-well assay plate. 5 μL of 2× (1 nM) MAPKAPK2 and 2× peptide (4 μM) mixture in assay buffer was dispensed to remaining columns of assay plate using Eppendorf electronic multiple channel pipette. The assay plate was incubated for 20 minutes. 5 μL of 2× ATP (6 μM) in assay buffer was dispensed to each well and then the assay plate was lightly centrifuged. The assay plate was incubated for an additional 120 minutes.
5 μL of development reagent A was dispensed to all wells using Eppendorf electronic multiple channel pipette. After incubating the development reaction for 120 min, plates were read on a Perkin Elmer Envision instrument.
Percent phosphorylation was calculated using the following formula:
[formula] Where • C100%=Average Coumarin emission signal of the 100% Phos. Control • C0%=Average Coumarin emission signal of the 0% Phos. Control • F100%=Average Fluorescein emission signal of the 100% Phos. Control • F0%=Average Flurescein emission signal of the 0% Phos. Control
`Fc1ccc(-c2cc3n(c2)Cc2cc(N4CCC5(C4)CN(C4CCCC4)C5)ccc2-n2ccnc2-3)cc1` [Compound 375, 7-(2-cyclopentyl-2,6-diazaspiro[3.4]octan-6-yl)-12-(4-fluorophenyl)-9H-benzo[e]imidazo[2,1-c]pyrrolo[1,2-a][1,4]diazepine] displayed an IC50 of under 0.05 µM.

In the case of `CN(C)C[C@@H]1CCN(c2cc3c(cn2)-n2cnnc2-c2cc(-c4ccc(F)cc4)cn2C3)C1` [Compound 443, (S)-1-(1-(12-(4-fluorophenyl)-9H-pyrido[3,4-e]pyrrolo[1,2-a][1,2,4]triazolo[3,4-c][1,4]diazepin-7-yl)pyrrolidin-3-yl)-N,N-dimethylmethanamine], the IC50 lay within 0.1 to 0.2 µM.

Regarding `CN(C)[C@H]1CN(c2ccc3c(n2)Cn2cc(-c4ccc(F)cc4)cc2-c2nccn2-3)C[C@H]1O` [Compound 432, (3R,4S)-4-(dimethylamino)-1-(12-(4-fluorophenyl)-9H-imidazo[2,1-c]pyrido[3,2-e]pyrrolo[1,2-a][1,4]diazepin-7-yl)pyrrolidin-3-ol], the IC50 lay in the range of 0.1 to 0.2 µM.

In turn, `CN(C)[C@H]1CCN(c2ccc3c(c2)Cn2cc(-c4ccc(F)cc4)cc2-c2ncnn2-3)C1` [Compound 427, (S)-1-(12-(4-fluorophenyl)-9H-benzo[e]pyrrolo[1,2-a][1,2,4]triazolo[5,1-c][1,4]diazepin-7-yl)-N,N-dimethylpyrrolidin-3-amine] returned an IC50 of 0.05 to 0.1 µM.

In the case of `CN(C)C[C@@H]1CN(c2ccc3c(n2)Cn2cc(-c4ccc(F)cc4)cc2-c2nccn2-3)C[C@H]1O` [Compound 436, (3S,4R)-4-((dimethylamino)methyl)-1-(12-(4-fluorophenyl)-9H-imidazo[2,1-c]pyrido[3,2-e]pyrrolo[1,2-a][1,4]diazepin-7-yl)pyrrolidin-3-ol], the half-inhibitory concentration (IC50) was under 0.05 µM.

With `CCN1CC2(CCN(c3ccc4c(c3)Cn3cc(-c5ccc(F)cc5)cc3-c3nccn3-4)C2)C1` [Compound 367, 7-(2-ethyl-2,6-diazaspiro[3.4]octan-6-yl)-12-(4-fluorophenyl)-9H-benzo[e]imidazo[2,1-c] pyrrolo[1,2-a][1,4]diazepine], the IC50 was under 0.05 µM.

`CNC[C@H]1CN(c2ccc3c(c2)Cn2cc(-c4ccc(C#N)cc4)cc2-c2nncn2-3)C[C@@H]1O` (relative stereo) [Compound 72, 4-(7-(trans-3-hydroxy-4-((methylamino)methyl)pyrrolidin-1-yl)-9H-benzo[e]pyrrolo[1,2-a][1,2,4]triazolo[3,4-c][1,4]diazepin-12-yl)benzonitrile] registered a concentration for half-maximal inhibition (IC50) of under 0.05 µM.

Molecule `CNC[C@@H]1CN(c2ccc3c(c2)Cn2cc(-c4ccc(F)cc4)cc2-c2ncnn2-3)C[C@@H]1F` [Compound 499, 1-((3R,4R)-4-fluoro-1-(12-(4-fluorophenyl)-9H-benzo[e]pyrrolo[1,2-a][1,2,4]triazolo[5,1-c] [1,4]diazepin-7-yl)pyrrolidin-3-yl)-N-methylmethanamine] gave a half-inhibitory concentration (IC50) of under 0.05 µM.

In turn, `CN(C)C[C@H]1CN(c2ccc3c(c2)Cn2cc(-c4ccc(C#N)cc4)cc2-c2nncn2-3)C[C@H]1O` [Compound 81, 4-(7-((3S,4S)-3-((dimethylamino)methyl)-4-hydroxypyrrolidin-1-yl)-9H-benzo[e]pyrrolo[1,2-a][1,2,4]triazolo[3,4-c][1,4]diazepin-12-yl)benzonitrile] registered an IC50 of under 0.05 µM.

`Fc1ccc(-c2cc3n(c2)Cc2cc(N4CC[C@@H](CNCC(F)F)C4)ccc2-n2ccnc2-3)cc1` [Compound 465, (S)-2,2-difluoro-N-((1-(12-(4-fluorophenyl)-9H-benzo[e]imidazo[2,1-c]pyrrolo[1,2-a][1,4]diazepin-7-yl)pyrrolidin-3-yl)methyl)ethanamine] registered an IC50 of 0.2 to 1 µM.

In turn, `CN(C)[C@@H]1CN(c2ccc3c(c2)Cn2cc(-c4ccc(F)cc4)cc2-c2nccn2-3)C[C@H]1CO` (relative stereo) [Compound 490, ((Trans)-4-(dimethylamino)-1-(12-(4-fluorophenyl)-9H-benzo[e]imidazo[2,1-c]pyrrolo[1,2-a][1,4]diazepin-7-yl)pyrrolidin-3-yl)methanol] registered an IC50 of under 0.05 µM.

In turn, `CN(C)C[C@@H]1CN(c2ccc3c(c2)Cn2cc(-c4ccc(C#N)cc4)cc2-c2nccn2-3)C[C@@H]1O` [Compound 129, 4-(7-((3R,4R)-3-((dimethylamino)methyl)-4-hydroxypyrrolidin-1-yl)-9H-benzo[e]imidazo[2,1-c]pyrrolo[1,2-a][1,4]diazepin-12-yl)benzonitrile] gave an IC50 of under 0.05 µM.

As for `CNCC1CN(c2ccc3c(c2)Cn2cc(-c4ccc(C#N)cc4)cc2-c2nncn2-3)C1` [Compound 11, 4-(7-(3-((methylamino)methyl)azetidin-1-yl)-9H-benzo[e]pyrrolo[1,2-a][1,2,4]triazolo[3,4-c][1,4]diazepin-12-yl)benzonitrile], the IC50 is 0.05 to 0.1 µM.

As for `CNC[C@H]1CN(c2ccc3c(c2)Cn2cc(-c4ccc(C#N)cc4)cc2-c2nncn2-3)C[C@H]1O` (racemic) [Compound 73, 4-(7-(cis-3-hydroxy-4-((methylamino)methyl)pyrrolidin-1-yl)-9H-benzo[e]pyrrolo[1,2-a] [1,2,4]triazolo[3,4-c][1,4]diazepin-12-yl)benzonitrile], the IC50 was under 0.05 µM.

The molecule `Fc1ccc(-c2cc3n(c2)Cc2cc(N4CC5(CCNC5)C4)ccc2-n2nnnc2-3)cc1` [Compound 403, 12-(4-fluorophenyl)-7-(2,6-diazaspiro[3.4]octan-2-yl)-9H-benzo[e]pyrrolo[1,2-a]tetrazolo[5,1-c][1,4]diazepine] came in with an IC50 of 0.05 to 0.1 µM.

For the molecule `CN(C)C1CCN(c2ccc3c(c2)Cn2cc(-c4ccc(F)cc4)cc2-c2nccn2-3)CC1` [Compound 381, 1-(12-(4-fluorophenyl)-9H-benzo[e]imidazo[2,1-c]pyrrolo[1,2-a][1,4]diazepin-7-yl)-N,N-dimethylpiperidin-4-amine], the IC50 was under 0.05 µM.

As to `CC(C)[C@@H](CO)NC[C@H]1CCN(c2ccc3c(c2)Cn2cc(-c4ccc(F)cc4)cc2-c2nccn2-3)C1` [Compound 359, (S)-2-((((R)-1-(12-(4-fluorophenyl)-9H-benzo[e]imidazo[2,1-c]pyrrolo[1,2-a][1,4]diazepin-7-yl)pyrrolidin-3-yl)methyl)amino)-3-methylbutan-1-ol], the IC50 was under 0.05 µM.

With `OC1CCN(C[C@@H]2CCN(c3ccc4c(c3)Cn3cc(-c5ccc(F)cc5)cc3-c3nccn3-4)C2)CC1` [Compound 361, (S)-1-((1-(12-(4-fluorophenyl)-9H-benzo[e]imidazo[2,1-c]pyrrolo[1,2-a][1,4]diazepin-7-yl)pyrrolidin-3-yl)methyl)piperidin-4-ol], the half-inhibitory concentration (IC50) was under 0.05 µM.

In turn, `c1ccc(-c2cc3n(c2)Cc2cc(N4CCC5(CNC5)C4)ccc2-n2ccnc2-3)cc1` [Compound 462, 12-phenyl-7-(2,6-diazaspiro[3.4]octan-6-yl)-9H-benzo[e]imidazo[2,1-c]pyrrolo[1,2-a][1,4]diazepine] displayed an IC50 of under 0.05 µM.

For `CN1CC2(CCN(c3ccc4c(c3)Cn3cc(-c5ccc(C#N)cc5)cc3-c3nnnn3-4)C2)C1` [Compound 240, 4-(7-(2-methyl-2,6-diazaspiro[3.4]octan-6-yl)-9H-benzo[e]pyrrolo[1,2-a]tetrazolo[5,1-c] [1,4]diazepin-12-yl)benzonitrile], the IC50 was under 0.05 µM.

In turn, `NC[C@@H]1CN(c2ccc3c(c2)Cn2cc(-c4ccc(F)cc4)cc2-c2nccn2-3)C[C@H]1O` [Compound 366, (3S,4R)-4-(aminomethyl)-1-(12-(4-fluorophenyl)-9H-benzo[e]imidazo[2,1-c]pyrrolo[1,2-a] [1,4]diazepin-7-yl)pyrrolidin-3-ol] returned a half-inhibitory concentration (IC50) of under 0.05 µM.

Turning to `CN(C)C[C@H]1CN(c2ccc3c(c2)Cn2cc(-c4ccc(F)cc4)cc2-c2nccn2-3)C[C@H]1F` [Compound 467, 1-((3S,4S)-4-fluoro-1-(12-(4-fluorophenyl)-9H-benzo[e]imidazo[2,1-c]pyrrolo[1,2-a][1,4]diazepin-7-yl)pyrrolidin-3-yl)-N,N-dimethylmethanamine], the half-maximal inhibitory concentration (IC50) is under 0.05 µM.

Turning to `C[C@H](CO)NC[C@@H]1CCN(c2ccc3c(c2)Cn2cc(-c4ccc(F)cc4)cc2-c2ncnn2-3)C1` [Compound 419, (R)-2-((((S)-1-(12-(4-fluorophenyl)-9H-benzo[e]pyrrolo[1,2-a][1,2,4]triazolo[5,1-c][1,4]diazepin-7-yl)pyrrolidin-3-yl)methyl)amino)propan-1-ol], the IC50 was under 0.05 µM.

Turning to `O[C@@H]1CN(c2ccc3c(c2)Cn2cc(-c4ccc(F)cc4)cc2-c2nccn2-3)C[C@H]1CN1CCCC1` (relative stereo) [Compound 472, (Trans)-1-(12-(4-fluorophenyl)-9H-benzo[e]imidazo[2,1-c]pyrrolo[1,2-a][1,4]diazepin-7-yl)-4-(pyrrolidin-1-ylmethyl)pyrrolidin-3-ol], the IC50 was under 0.05 µM.

Regarding `CNC[C@H]1CN(c2ccc3c(c2)Cn2cc(-c4ccc(F)cc4)cc2-c2nccn2-3)C[C@@H]1O` [Compound 363, (3R,4S)-1-(12-(4-fluorophenyl)-9H-benzo[e]imidazo[2,1-c]pyrrolo[1,2-a][1,4]diazepin-7-yl)-4-((methylamino)methyl)pyrrolidin-3-ol], the IC50 was under 0.05 µM.

`CNCC1CN(c2ccc3c(c2)Cn2cc(-c4ccc(F)cc4)cc2-c2nnnn2-3)C1` [Compound 386, 1-(1-(12-(4-fluorophenyl)-9H-benzo[e]pyrrolo[1,2-a]tetrazolo[5,1-c][1,4]diazepin-7-yl)azetidin-3-yl)-N-methylmethanamine]: the IC50 was under 0.05 µM.
